Measured values reported in PubChem BioAssay (NCI).
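The concentration for 50% growth inhibition is given as GI50. TGI: concentration producing complete growth inhibition.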

Assays:
Test in all cases: NCI anticancer screen, dose series, 384-well format
[1] = tested on: 786-0 renal
[2] = tested on: A498 renal
[3] = tested on: A549 NSCLC
[4] = tested on: ACHN renal
[5] = tested on: BT-549 breast
[6] = tested on: CAKI-1 renal
[7] = tested on: CCRF-CEM leukemia
[8] = tested on: COLO 205 colon
[9] = tested on: DU-145 prostate
[10] = tested on: EKVX NSCLC
[11] = tested on: HCC-2998 colon
[12] = tested on: HCT-116 colon
[13] = tested on: HCT-15 colon
[14] = tested on: HL-60(TB) leukemia
[15] = tested on: HOP-62 NSCLC
[16] = tested on: HOP-92 NSCLC
[17] = tested on: HS 578T breast
[18] = tested on: HT29 colon
[19] = tested on: K-562 leukemia
[20] = tested on: KM12 colon
[21] = tested on: LOX IMVI melanoma
[22] = tested on: M14 melanoma
[23] = tested on: MALME-3M melanoma
[24] = tested on: MDA-MB-231 breast
[25] = tested on: MDA-MB-435 melanoma
[26] = tested on: MOLT-4 leukemia
[27] = tested on: NCI-H226 lung
[28] = tested on: NCI-H23 lung
[29] = tested on: NCI-H322M lung
[30] = tested on: NCI-H460 NSCLC
[31] = tested on: NCI-H522 lung
[32] = tested on: NCI/ADR-RES ovarian
[33] = tested on: OVCAR-3 ovarian
[34] = tested on: OVCAR-4 ovarian
[35] = tested on: OVCAR-5 ovarian
[36] = tested on: PC-3 prostate
[37] = tested on: RPMI-8226 leukemia
[38] = tested on: RXF 393 renal
[39] = tested on: SF-268 CNS
[40] = tested on: SF-295 CNS
[41] = tested on: SF-539 CNS
[42] = tested on: SK-MEL-2 melanoma
[43] = tested on: SK-MEL-28 melanoma
[44] = tested on: SK-MEL-5 melanoma
[45] = tested on: SK-OV-3 ovarian
[46] = tested on: SN12C renal
[47] = tested on: SNB-19 CNS
[48] = tested on: SNB-75 CNS
[49] = tested on: SR leukemia
[50] = tested on: SW-620 colon
[51] = tested on: T-47D breast
[52] = tested on: U251 glioblastoma
[53] = tested on: UACC-257 melanoma
[54] = tested on: UACC-62 melanoma
[55] = tested on: UO-31 renal

Compound: C[C@@H](NC(=O)/C(C#N)=C/c1ccc([N+](=O)[O-])cc1)c1ccccc1
- GI50 [1]: 1.72 µM
- TGI [1]: 3.21 µM
- GI50 [2]: 1.91 µM
- TGI [2]: 3.54 µM
- GI50 [3]: 3.04 µM
- TGI [3]: 8.55 µM
- GI50 [4]: 1.79 µM
- TGI [4]: 3.25 µM
- GI50 [5]: 1.85 µM
- TGI [5]: 3.42 µM
- GI50 [6]: 1.72 µM
- TGI [6]: 3.32 µM
- GI50 [7]: 1.64 µM
- TGI [7]: 3.02 µM
- GI50 [8]: 1.71 µM
- TGI [8]: 3.11 µM
- GI50 [9]: 3.2 µM
- TGI [9]: 9.86 µM
- GI50 [10]: 1.91 µM
- TGI [10]: 3.55 µM
- GI50 [11]: 1.14 µM
- TGI [11]: 2.42 µM
- GI50 [12]: 2.59 µM
- TGI [12]: 5.95 µM
- GI50 [13]: 1.72 µM
- TGI [13]: 3.24 µM
- GI50 [14]: 1.78 µM
- TGI [14]: 3.18 µM
- GI50 [15]: 2.4 µM
- TGI [15]: 5.77 µM
- GI50 [16]: 3.22 µM
- TGI [16]: 12.1 µM
- GI50 [17]: 1.85 µM
- TGI [17]: 3.41 µM
- GI50 [18]: 1.82 µM
- TGI [18]: 3.25 µM
- GI50 [19]: 1.85 µM
- TGI [19]: 4.04 µM
- GI50 [20]: 1.9 µM
- TGI [20]: 3.79 µM
- GI50 [21]: 1.93 µM
- TGI [21]: 3.49 µM
- GI50 [22]: 2.37 µM
- TGI [22]: 5.7 µM
- GI50 [23]: 2.29 µM
- TGI [23]: 4.6 µM
- GI50 [24]: 3.03 µM
- TGI [24]: 7.47 µM
- GI50 [25]: 3.26 µM
- TGI [25]: 10.4 µM
- GI50 [26]: 1.5 µM
- TGI [26]: 2.85 µM
- GI50 [27]: 2.04 µM
- TGI [27]: 4.28 µM
- GI50 [28]: 1.83 µM
- TGI [28]: 3.39 µM
- GI50 [29]: 1.98 µM
- TGI [29]: 3.82 µM
- GI50 [30]: 1.74 µM
- TGI [30]: 3.24 µM
- GI50 [31]: 0.271 µM
- TGI [31]: 0.964 µM
- GI50 [32]: 2.08 µM
- TGI [32]: 4.65 µM
- GI50 [33]: 1.61 µM
- TGI [33]: 3.12 µM
- GI50 [34]: 1.73 µM
- TGI [34]: 3.3 µM
- GI50 [35]: 2.57 µM
- TGI [35]: 6.52 µM
- GI50 [36]: 2 µM
- TGI [36]: 3.93 µM
- GI50 [37]: 1.7 µM
- TGI [37]: 3.09 µM
- GI50 [38]: 1.72 µM
- TGI [38]: 3.15 µM
- GI50 [39]: 2.23 µM
- TGI [39]: 5.52 µM
- GI50 [40]: 1.94 µM
- TGI [40]: 3.85 µM
- GI50 [41]: 2.18 µM
- TGI [41]: 4.3 µM
- GI50 [42]: 2.02 µM
- TGI [42]: 3.57 µM
- GI50 [43]: 3.48 µM
- TGI [43]: 9.82 µM
- GI50 [44]: 2.09 µM
- TGI [44]: 3.79 µM
- GI50 [45]: 2.19 µM
- TGI [45]: 4.54 µM
- GI50 [46]: 2.01 µM
- TGI [46]: 4.19 µM
- GI50 [47]: 2.33 µM
- TGI [47]: 5.78 µM
- GI50 [48]: 1.76 µM
- TGI [48]: 3.24 µM
- GI50 [49]: 1.28 µM
- TGI [49]: 2.58 µM
- GI50 [50]: 1.88 µM
- TGI [50]: 3.39 µM
- GI50 [51]: 2.75 µM
- TGI [51]: 5.85 µM
- GI50 [52]: 1.74 µM
- TGI [52]: 3.26 µM
- GI50 [53]: 3.39 µM
- TGI [53]: 9.81 µM
- GI50 [54]: 1.82 µM
- TGI [54]: 3.51 µM
- GI50 [55]: 1.34 µM
- TGI [55]: 2.66 µM
